Our source for the EC50 values is patent publication US8999967B2, “Tricyclic fused ring inhibitors of hepatitis C” (Presidio Pharmaceuticals, Inc., priority 2010, dated 2015).

In this test the test system is HCV 1b_Huh-Luc/Neo-ET cell line (genotype 1b replicon in Huh 7 cells). Nature of the test: HCV replicon assay (luciferase readout). It counts as cell-based. Conditions: Hepatitis C virus, HCV 1b replicon in Huh 7 cells, 72 h incubation, EC50 range class, read-out: Inhibition of HCV genotype 1b. The method, then:
Biological activity of the compounds of the invention was determined using an HCV replicon assay. The HCV 1b_Huh-Luc/Neo-ET cell line persistently expressing a bicistronic genotype 1b replicon in Huh 7 cells was obtained from ReBLikon GMBH. This cell line was used to test compound inhibition using luciferase enzyme activity readout as a measurement of compound inhibition of replicon levels.
On Day 1 (the day after plating cells), each compound is added in triplicate to the cells. Plates are incubated for 72 h prior to determining luciferase levels. Enzyme activity was measured using a Bright-Glo Kit (cat. number E2620) manufactured by Promega Corporation. The following equation was used to generate a percent control value for each compound. % Control=(Compound Luciferase Level/Control Luciferase Level)*100
The EC50 value was determined using GraphPad Prism and the following equation: Y=Bottom asymptote+(Top asymptote-Bottom asymptote)/(1+10^((Log EC50−X)*HillSlope))
EC50 values of compounds are determined several times in the replicon assay to generate average EC50 values. […]
For orientation: A replicon is a self-replicating genome or part of one, used to study replication in cells.
As for `COC(=O)N[C@H](C(=O)N1CCC[C@H]1c1ncc(-c2cc3c(cc2F)Cc2cc(-c4cnc([C@@H]5CCCN5C(=O)[C@@H](NC(=O)OC)C5CCOCC5)[nH]4)ccc2O3)[nH]1)C(C)C` [Compound 44], the EC50 is less than 1 nM.

In the case of `COC(=O)N[C@@H](C)C(=O)N1CCC[C@H]1c1ncc(-c2ccc3oc4cc(-c5cnc([C@@H]6CCCN6C(=O)[C@@H](NC(=O)OC)C(C)C)[nH]5)ccc4c(=O)c3c2)[nH]1` [Example 20], the EC50 was less than 1 nM.

For the molecule `COC(=O)N[C@H](C(=O)N1CCC[C@H]1c1ncc(-c2ccc3c(c2)Oc2ccc(-c4cnc([C@@H]5CCCN5C(=O)[C@@H](NC(=O)OC)C(C)C)[nH]4)cc2C32CC2)[nH]1)C(C)C` [Example 26], the EC50 is less than 1 nM.

Turning to `COC(=O)N[C@H](C(=O)N1CCC[C@H]1c1ncc(-c2ccc3c(c2)Cc2cc(F)c(-c4cnc([C@@H]5CCCN5C(=O)[C@@H](NC(=O)OC)[C@@H](C)OC)[nH]4)cc2O3)[nH]1)[C@@H](C)OC` [Compound 40], the EC50 was less than 1 nM.

Regarding `COC(=O)N[C@H](C(=O)N1CCCC[C@H]1c1ncc(-c2ccc3c(c2)Oc2ccc(-c4cnc([C@@H]5CCCCN5C(=O)[C@@H](NC(=O)OC)C(C)C)[nH]4)cc2O3)[nH]1)C(C)C` [Compound 47], the EC50 was less than 1 nM.

For `COC(=O)N[C@H](C(=O)N1CCC[C@H]1c1ncc(-c2ccc3c(c2)Oc2ccc(-c4cnc([C@@H]5COCCN5C(=O)[C@@H](NC(=O)OC)C(C)C)[nH]4)cc2C3)[nH]1)C(C)C` [Compound 144], the EC50 was less than 1 nM.

`COC(=O)N[C@H](C(=O)N1CCC[C@H]1c1ncc(-c2ccc3c(c2)CCc2cc(-c4cnc([C@@H]5CCCN5C(=O)[C@@H](NC(=O)OC)C(C)C)[nH]4)ccc2O3)[nH]1)C(C)C` [Example 7]: the EC50 was less than 1 nM.

On to `COC(=O)N[C@H](C(=O)N1CCC[C@H]1c1ncc(-c2ccc3c(c2)Oc2nnc(-c4cnc([C@@H]5CCCN5C(=O)[C@@H](NC(=O)OC)C(C)C)[nH]4)cc2O3)[nH]1)C(C)C` [Compound 151], for which the EC50 fell in the range of 1 to 9.9 nM.

On to `COC(=O)N[C@H](C(=O)N1CCC[C@H]1c1ncc(-c2ccc3c(c2)Cc2cc(F)c(-c4cnc([C@@H]5CCCN5C(=O)[C@@H](NC(=O)OC)[C@@H](C)OC)[nH]4)cc2O3)[nH]1)C1CCOCC1` [Compound 42], for which the EC50 was less than 1 nM.

For `COC(=O)N[C@H](C(=O)N1CCC[C@H]1c1ncc(-c2ccc3c(c2)Oc2ccc(-c4cnc([C@@H]5CCCN5C(=O)[C@@H](NC(=O)OC)C(C)C)[nH]4)cc2C3(C)C)[nH]1)C(C)C` [Example 10], the EC50 was less than 1 nM.

Regarding `COC(=O)N[C@@H](C(=O)N1CCC[C@H]1c1ncc(-c2ccc3nc4cc(-c5cnc([C@@H]6CCCN6C(=O)[C@H](NC(=O)OC)c6ccccc6)[nH]5)ccc4nc3c2)[nH]1)c1ccccc1` [Example 2], the EC50 is less than 1 nM.

On to `COC(=O)N[C@H](C(=O)N1CCC[C@H]1c1ncc(-c2ccc3c(c2)Cc2cc(Cl)c(-c4cnc([C@@H]5CCCN5C(=O)[C@@H](NC(=O)OC)[C@@H](C)OC)[nH]4)cc2O3)[nH]1)[C@@H](C)OC` [Compound 62], for which the EC50 was less than 1 nM.

For `CC[C@H](C)[C@H](NC(=O)OC)C(=O)N1CCC[C@H]1c1ncc(-c2ccc3c(c2)Oc2ccc(-c4cnc([C@@H]5CCCN5C(=O)[C@@H](NC(=O)OC)[C@@H](C)CC)[nH]4)cc2C32CC2)[nH]1` [Compound 79], the EC50 is less than 1 nM.

For `C#CC[C@H](NC(=O)OC)C(=O)N1CCC[C@H]1c1ncc(-c2ccc3c(c2)C(C)(C)c2ccc(-c4ccc5nc([C@@H]6CCCN6C(=O)[C@H](CC#C)NC(=O)OC)[nH]c5c4)cc2O3)[nH]1` [Compound 150], the EC50 was less than 1 nM.

With `COC(=O)N[C@H](C(=O)N1CCC[C@H]1c1ncc(-c2cc3oc4ccc(-c5cnc([C@@H]6CCCN6C(=O)[C@@H](NC(=O)OC)C6CCOCC6)[nH]5)cc4c(=O)c3cc2F)[nH]1)C(C)C` [Example 28], the EC50 is less than 1 nM.

Take `COC(=O)N[C@H](C(=O)N1CCC[C@H]1c1ncc(-c2ccc3c(c2)Cc2cc(Cl)c(-c4cnc([C@@H]5CCCN5C(=O)[C@@H](NC(=O)OC)C(C)C)[nH]4)cc2O3)[nH]1)C(C)C` [Compound 61]: the EC50 was less than 1 nM.

On to `COC(=O)N[C@H](C(=O)N1CSC[C@H]1c1ncc(-c2ccc3c(=O)c4cc(-c5cnc([C@@H]6CSCN6C(=O)[C@@H](NC(=O)OC)C(C)C)[nH]5)ccc4oc3c2)[nH]1)C(C)C` [Compound 128], for which the EC50 was less than 1 nM.

Take `COC(=O)N[C@H](C(=O)N1CCC[C@H]1c1ncc(-c2cc3c(cc2F)Cc2cc(-c4cnc([C@@H]5CCCN5C(=O)[C@@H](NC(=O)OC)[C@@H](C)OC)[nH]4)ccc2O3)[nH]1)C(C)C` [Example 29]: the EC50 was less than 1 nM.

Turning to `COC(=O)N[C@@H](C(=O)N1CSC[C@H]1c1ncc(-c2ccc3c(=O)c4cc(-c5cnc([C@@H]6CSCN6C(=O)[C@H](NC(=O)OC)c6ccccc6)[nH]5)ccc4oc3c2)[nH]1)c1ccccc1` [Compound 129], the EC50 was less than 1 nM.

Consider `COC(=O)N[C@@H](C(=O)N1CCC[C@H]1c1ncc(-c2ccc3oc4cc(-c5cnc([C@@H]6CCCN6C(=O)[C@H](NC(=O)OC)c6ccccc6)[nH]5)c(F)cc4c(=O)c3c2)[nH]1)c1ccccc1` [Example 24], for which the EC50 was less than 1 nM.

For the molecule `C=CC[C@H](NC(=O)OC)C(=O)N1CCC[C@H]1c1ncc(-c2ccc3c(c2)Oc2ccc(-c4cnc([C@@H]5CCCN5C(=O)[C@H](CC=C)NC(=O)OC)[nH]4)cc2O3)[nH]1` [Compound 55], the EC50 is less than 1 nM.

As to `COC(=O)N[C@H](C(=O)N1CCC[C@H]1c1ncc(-c2ccc3c(=O)c4cc(-c5cnc([C@@H]6COCCN6C(=O)[C@@H](NC(=O)OC)[C@@H](C)OC)[nH]5)ccc4oc3c2)[nH]1)[C@@H](C)OC` [Compound 131], the EC50 was less than 1 nM.

Regarding `COC(=O)N[C@H](C(=O)N1CCC[C@H]1c1ncc(-c2ccc3c(=O)c4cc(-c5cnc([C@@H]6CCCN6C(=O)[C@H](NC(=O)OC)c6ccccc6)[nH]5)ccc4oc3c2)[nH]1)C(C)C` [Example 15], the EC50 was less than 1 nM.

Consider `C#CC[C@H](NC(=O)OC)C(=O)N1CCC[C@H]1c1ncc(-c2ccc3c(c2)Oc2ccc(-c4cnc([C@@H]5CCCN5C(=O)[C@H](CC#C)NC(=O)OC)[nH]4)cc2O3)[nH]1` [Compound 56], for which the EC50 is less than 1 nM.

For `COC(=O)N[C@H](C(=O)N1CCC[C@H]1c1ncc(-c2ccc3c(c2)Oc2ccc(-c4cnc([C@@H]5CCCN5C(=O)[C@@H](NC(=O)OC)[C@@H](C)OC)[nH]4)cc2C3(C)C)[nH]1)[C@@H](C)OC` [Compound 71], the EC50 is less than 1 nM.

Take `COC(=O)N[C@@H](C(=O)N1CCC[C@H]1c1ncc(-c2ccc3oc4cc(-c5cnc([C@@H]6CCCN6C(=O)[C@H](NC(=O)OC)c6ccccc6)[nH]5)c(Cl)cc4c(=O)c3c2)[nH]1)c1ccccc1` [Compound 58]: the EC50 was less than 1 nM.

For `COC(=O)N[C@H](C(=O)N1CCC[C@H]1c1ncc(-c2ccc3c(c2)Oc2ccc(-c4cnc([C@@H]5CCCN5C(=O)[C@@H](NC(=O)OC)C(C)C)[nH]4)cc2O3)[nH]1)C(C)C` [Example 3], the EC50 is less than 1 nM.

Take `COC(=O)N[C@H](C(=O)N1CCC[C@H]1c1ncc(-c2ccc3c(=O)c4cc(-c5cnc([C@@H]6CSCN6C(=O)[C@@H](NC(=O)OC)[C@@H](C)OC)[nH]5)ccc4oc3c2)[nH]1)[C@@H](C)OC` [Compound 120]: the EC50 was less than 1 nM.

Consider `COC(=O)N[C@H](C(=O)N1CCC[C@H]1c1ncc(-c2ccc3oc4cc(-c5cnc([C@@H]6CCCN6C(=O)[C@H](NC(=O)OC6CCOCC6)c6ccccc6)[nH]5)ccc4c(=O)c3c2)[nH]1)C(C)C` [Example 21], for which the EC50 is less than 1 nM.

Regarding `CC[C@H](C)[C@H](NC(=O)OC)C(=O)N1CCC[C@H]1c1ncc(-c2ccc3c(c2)Oc2ccc(-c4cnc([C@@H]5COCCN5C(=O)[C@@H](NC(=O)OC)[C@@H](C)CC)[nH]4)cc2C3)[nH]1` [Compound 143], the EC50 was less than 1 nM.
